Values joined by “and” are separate entries in the source; they are usually repeats but may differ in a detail not shown here. Equal entries are not always repeated.
Assays:
ICAM-1 = settings: synthesized peptide 100 μM
Protocol: (§1) The peptides were subjected to study the anti-inflammatory activity; the levels of intercellular adhesion molecule (ICAM-1) and vascular cell adhesion molecule (VCAM-1) expressed in EA.hy926 cells were detected by Western blot as inflammatory biomarkers. The EA, hy926 cells with passage number <12 were grown in 48-well plates. The cells reaching 80-90% confluence were treated with various concentrations (2.5 mg/mL of hydrolysates and digests, 0.2 mM and 3.0 mM of synthetic peptides) of the samples for 18 h. Then the cells were stimulated with TNF-α at 10 ng/mL and incubated for an additional 6 h in order to induce inflammation.
(§2) After the treatment period, the culture medium of the EA. hy926 cells was discarded and a boiling Laemmle buffer containing 0.2% TritonX-100 and 50 μM dithiothreitol was added to lysate the cells. The cell lysates were then run on 9% sodium dodecyl sulfate polyacrylamide gel electrophoresis. The gels were transferred onto nitrocellulose membranes, and immunoblotted with anti-ICAM-1/anti-VCAM-1 antibodies. The concentration of antibody to α-tubulin used was 0.4 μg/mL, while that for all other antibodies was 0.1 μg/mL. The protein bands were scanned using Licor Odyssey BioImager (Licor Biosciences, Lincoln, NB, USA) and quantified by densitometry using Image Studio Lite 5.2.

VCAM-1 = settings: synthesized peptide 100 μM
Protocol: as §1, §2

[1] = literature report, in words; cited from earlier work

Substance | ICAM-1 (%TNF-α) (ICAM-1) | VCAM-1 (TNF-α) (VCAM-1) | antibacterial activity [1]
Phe-Tyr-Gln-Ala [FYQA] | 56.6 %TNF-α and 56.6 ± 9.0 %TNF-α | 41.3 TNF-α and 41.3 ± 10.6 TNF-α | 
AASDISLLDAQSAPLR [peptide obtained by enzymolysis of β-LG] |  |  | strong antibacterial activity
IPAVFK: peptide obtained by enzymolysis of β-LG (UniProt P02754 94-99, looked up, fragment) |  |  | strong antibacterial activity
VLVLDTDYK [peptide obtained by enzymolysis of β-LG] |  |  | strong antibacterial activity
Leu-Gln-Tyr [LQY] | 48.2 %TNF-α and 48.2 ± 6.3 %TNF-α | 33.7 TNF-α and 33.7 ± 6.9 TNF-α | 

From patent publication US11524977B2, “Ultrasound-assisted simulated digestion method of milk protein active peptide and application thereof in health foods” (JIANGSU UNIVERSITY, priority 2017, dated 2022)
